According to patent publication US7973034B2, “Amide, aryl sulfonamide, aryl urea, and α,β-diketone derived carboxylesterase inhibitors, and their methods of use” (priority 2003, dated 2011):
Like-named read-outs stand apart in the source and are kept apart here.

Assays:
[1] = target: T1, human intestinal carboxylesterase in U373MGhiCE cells (Homo sapiens, UniProt O00748); assay: Inhibition of intracellular carboxylesterase in U373MGhiCE cells; type: cell-based
T1 construct: expressed in transfected cells; host or cells: U373MG human glioma cells (U373MGhiCE)
T1 sequence (O00748 27-559): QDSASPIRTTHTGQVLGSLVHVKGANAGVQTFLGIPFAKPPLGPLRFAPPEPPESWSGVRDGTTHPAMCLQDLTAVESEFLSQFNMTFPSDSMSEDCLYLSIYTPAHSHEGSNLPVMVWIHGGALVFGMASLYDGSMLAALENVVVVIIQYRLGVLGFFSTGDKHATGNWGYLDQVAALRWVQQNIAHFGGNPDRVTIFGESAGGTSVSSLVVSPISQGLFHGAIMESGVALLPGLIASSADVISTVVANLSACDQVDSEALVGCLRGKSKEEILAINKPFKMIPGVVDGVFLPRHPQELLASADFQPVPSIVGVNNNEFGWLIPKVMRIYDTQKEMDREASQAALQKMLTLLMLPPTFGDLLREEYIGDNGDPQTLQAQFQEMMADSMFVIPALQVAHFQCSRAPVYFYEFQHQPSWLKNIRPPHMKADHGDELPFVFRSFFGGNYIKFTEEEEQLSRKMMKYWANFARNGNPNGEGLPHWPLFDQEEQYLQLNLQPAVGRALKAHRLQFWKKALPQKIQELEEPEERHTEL
Method: To monitor the ability of the compounds to cross the cell membrane and inhibit carboxylesterase activity intracellularly, an assay using human tumor cells expressing hiCE was devised. U373MGhiCE (a human glioma cell line transfected with a plasmid expressing hiCE) were plated in T25 flasks and allowed to grow to confluency (approximately 2-5×10^5 cells). Inhibitors were then added at a final concentration of […], and incubation allowed to continue for 1 hour. At this time, the cells were washed extensively with 5 ml of complete media and 2×5 ml of Hanks balanced salt solution, and cell extracts were prepared. Carboxylesterase activity was then determined using o-NPA as a substrate.
Table 8 sets forth the level of intracellular enzyme inhibition following incubation of human glioblastoma tumor cells expressing human intestinal carboxylesterase with 10 μM of each compound identified in Table 3.

[2] = target: T2, human small intestine carboxylesterase (hiCE) (Homo sapiens, UniProt O00748); assay: biochemical; type: biochemical; conditions: o-NPA as substrate; for Ki: Table 5, read-out: Ki hiCE; for Ki (hCE1)/Ki (hiCE): selectivity ratio
T2 sequence (O00748 27-559): T1 sequence (O00748 27-559)

[3] = target: T3, human liver carboxylesterase (hCE1) (Homo sapiens, UniProt P23141); assay: biochemical; type: biochemical; conditions: o-NPA as substrate
T3 sequence (P23141 18-567): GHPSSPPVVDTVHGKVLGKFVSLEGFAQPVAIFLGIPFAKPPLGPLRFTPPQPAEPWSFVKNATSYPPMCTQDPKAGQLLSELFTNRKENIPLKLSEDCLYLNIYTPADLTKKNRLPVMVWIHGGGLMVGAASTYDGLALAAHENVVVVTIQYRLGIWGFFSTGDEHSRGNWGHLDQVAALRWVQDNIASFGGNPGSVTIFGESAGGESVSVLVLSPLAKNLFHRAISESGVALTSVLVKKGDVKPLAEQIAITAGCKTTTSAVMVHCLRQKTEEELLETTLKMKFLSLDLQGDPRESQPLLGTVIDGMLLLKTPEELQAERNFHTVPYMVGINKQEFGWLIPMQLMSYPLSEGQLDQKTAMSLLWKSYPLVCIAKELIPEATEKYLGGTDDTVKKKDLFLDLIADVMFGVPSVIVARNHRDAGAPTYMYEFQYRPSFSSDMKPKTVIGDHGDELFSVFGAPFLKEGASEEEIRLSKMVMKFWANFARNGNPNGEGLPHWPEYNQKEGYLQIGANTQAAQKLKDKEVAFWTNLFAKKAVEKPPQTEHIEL

[4] = target: human butyrylcholinesterase (hBuChE) (Homo sapiens, UniProt P06276); assay: biochemical
Sequence of human butyrylcholinesterase (hBuChE) (P06276 29-602): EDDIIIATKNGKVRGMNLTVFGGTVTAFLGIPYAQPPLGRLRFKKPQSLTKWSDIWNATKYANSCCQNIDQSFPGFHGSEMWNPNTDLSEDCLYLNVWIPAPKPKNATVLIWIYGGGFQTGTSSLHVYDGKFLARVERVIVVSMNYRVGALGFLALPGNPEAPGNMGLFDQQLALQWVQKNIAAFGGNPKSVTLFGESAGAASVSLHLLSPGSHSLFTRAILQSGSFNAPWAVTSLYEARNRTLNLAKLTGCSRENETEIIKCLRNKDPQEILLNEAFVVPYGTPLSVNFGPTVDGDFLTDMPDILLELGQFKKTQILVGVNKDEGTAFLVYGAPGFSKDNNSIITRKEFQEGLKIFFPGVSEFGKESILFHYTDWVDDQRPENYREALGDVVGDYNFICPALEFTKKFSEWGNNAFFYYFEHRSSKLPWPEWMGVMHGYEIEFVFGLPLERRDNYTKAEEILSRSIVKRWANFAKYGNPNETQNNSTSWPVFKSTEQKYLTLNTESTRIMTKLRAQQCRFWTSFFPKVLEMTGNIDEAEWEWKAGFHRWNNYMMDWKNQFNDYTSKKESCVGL

[5] = target: T4, human acetylcholinesterase (hAcChE) (Homo sapiens, UniProt P22303); assay: biochemical; type: biochemical
T4 construct: purchased Sigma Biochemicals (St. Louis, Mo.)
T4 sequence (P22303 32-614): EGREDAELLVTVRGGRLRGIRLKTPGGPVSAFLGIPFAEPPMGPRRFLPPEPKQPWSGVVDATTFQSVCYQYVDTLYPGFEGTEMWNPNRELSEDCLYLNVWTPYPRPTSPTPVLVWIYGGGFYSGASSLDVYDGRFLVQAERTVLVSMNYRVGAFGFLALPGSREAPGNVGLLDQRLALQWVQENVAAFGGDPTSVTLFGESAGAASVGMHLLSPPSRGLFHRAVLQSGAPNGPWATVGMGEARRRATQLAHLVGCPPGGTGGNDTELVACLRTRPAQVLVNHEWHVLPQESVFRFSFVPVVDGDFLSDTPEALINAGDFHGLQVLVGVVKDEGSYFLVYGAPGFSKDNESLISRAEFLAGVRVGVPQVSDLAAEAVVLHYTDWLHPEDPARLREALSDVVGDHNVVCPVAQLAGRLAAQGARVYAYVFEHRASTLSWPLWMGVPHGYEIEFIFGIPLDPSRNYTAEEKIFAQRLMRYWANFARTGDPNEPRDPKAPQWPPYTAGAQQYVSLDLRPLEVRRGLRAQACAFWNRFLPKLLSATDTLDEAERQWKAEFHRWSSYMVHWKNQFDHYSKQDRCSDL
Method: Data was transferred to GraphPad Prism software, and Ki values were calculated as described in the Example above.

[6] = target: T5, rabbit liver carboxylesterase (rCE) (Oryctolagus cuniculus, UniProt P12337); assay: biochemical; type: biochemical; conditions: o-NPA as substrate
T5 sequence (P12337 19-565): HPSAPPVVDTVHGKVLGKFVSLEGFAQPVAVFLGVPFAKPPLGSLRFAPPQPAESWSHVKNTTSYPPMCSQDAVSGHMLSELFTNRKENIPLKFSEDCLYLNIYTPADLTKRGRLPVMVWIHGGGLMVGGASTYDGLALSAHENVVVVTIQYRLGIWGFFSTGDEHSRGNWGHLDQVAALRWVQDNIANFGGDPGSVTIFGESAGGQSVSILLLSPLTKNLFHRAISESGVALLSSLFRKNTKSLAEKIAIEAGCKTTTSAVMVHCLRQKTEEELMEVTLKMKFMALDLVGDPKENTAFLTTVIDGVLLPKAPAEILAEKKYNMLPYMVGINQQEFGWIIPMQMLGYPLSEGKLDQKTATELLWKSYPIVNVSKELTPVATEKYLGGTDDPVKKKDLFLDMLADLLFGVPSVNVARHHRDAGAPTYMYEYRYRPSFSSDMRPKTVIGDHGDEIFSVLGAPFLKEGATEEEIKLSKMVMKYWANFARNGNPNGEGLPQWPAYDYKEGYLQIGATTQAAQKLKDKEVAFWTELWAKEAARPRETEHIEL

[7] = target: T6, hiCE (Homo sapiens, UniProt O00748); assay: Inhibition of hiCE-mediated activation of CPT-11 (SN-38 by HPLC); type: biochemical; conditions: CPT-11 as substrate (100 μm), 1 hour at 37° C.; read-out: Ki hiCE
T6 sequence (O00748 27-559): T1 sequence (O00748 27-559)
Method: Since the sulphonamide compounds identified herein are competitive inhibitors of hiCE, their activity is dependant upon the substrate used. To access the ability of these compounds to inhibit the hiCE-mediated activation of CPT-11, Ki values were determined using CPT-11 as the substrate.
CPT-11 concentrations were fixed at […], and inhibitor concentrations varied from 1 nM to 10 μM. Following incubation for an hour at 37° C., the levels of SN-38 in the reaction mixture was determined by High Performance Liquid Chromatography (HPLC).

[8] = system: carboxylesterases; assay: General carboxylesterase inhibition; type: biochemical
Method: Carboxylesterase (CE) inhibition was determined by a spectroscopic assay using o-nitrophenyl acetate (o-NPA) as a substrate. Recombinant CEs produced from expression in Spodoptera frugiperda Sf9 insect cells via baculovirus were purified from serum-free culture media for the enzyme inhibition studies. Enzymes were incubated in 200 μl of 50 mM Hepes (pH 7.4) containing 3 mM o-NPA. Conversion of the o-NPA to nitrophenol was monitored by measuring the change in the absorbance at 420 nm. Absorbance readings were taken every 15 seconds for 2 minutes, and data transferred to a computer data spreadsheet. […] The final DMSO concentration was always 1% or less. […] The above procedure was then repeated using the same assay, with inhibitor concentrations ranging from 1 nM to 100 μM. Results were then transferred to Prism software (GraphPad Software, Inc., San Diego, Calif.) and Ki values determined using sigmoidal curve fits of the data. Routinely, all analyses were performed in duplicate, and Ki values determined using at least 8 inhibitor concentrations.

[9] = acetylthiocholine substrate, Table 5, read-out: Ki hAcChE
[10] = Table 6, read-out: hCE1 Ki ± SE
[11] = acetylthiocholine as substrate, Table 6, read-out: hAcChE Ki
[12] = butyrylthiocholine as substrate, Table 6, read-out: hBuChE Ki

Structure (SMILES)	Ki [4] [µM]	found to be general carboxylesterase inhibitors [8]	Ki [3, 10] [µM]	Ki ([6]; Table 6, read-out: rCE Ki ± SE) [µM]	Ki [5, 11] [µM]	other results
CS(=O)(=O)Nc1ccc(SSc2ccc(NS(C)(=O)=O)cc2)cc1 [Compound 50, N-[4-({4-[(methylsulfonyl)amino]phenyl}dithio)phenyl]methanesulfonamide]	> 100					inhibition at 10 µM [1]: 14.6%; Ki [2]: 0.767 ± 0.285 µM; Ki (hCE1)/Ki (hiCE) [2]: >125; Ki ([3]; Table 5, read-out: Ki hCE1): > 100 µM; Ki [5, 9]: > 100 µM; Ki ([6]; Table 5, read-out: Ki rCE): 0.739 ± 0.384 µM; Ki [7]: > 100 µM
Cc1ccc(C(=O)C(=O)c2ccc(Cl)cc2)cc1 [Compound 22, 1-(4-chlorophenyl)-2-(4-methylphenyl)ethane-1,2-dione]	> 100	general carboxylesterase inhibitors	0.16 ± 0.032	0.0162 ± 0.0017		
O=C(C(=O)c1ccc([N+](=O)[O-])cc1)c1ccccc1 [Compound 14, 1-(4-nitrophenyl)-2-phenylethane-1,2-dione]	> 100	general carboxylesterase inhibitors	0.215 ± 0.024	0.0217 ± 0.0025	> 100	
O=S(=O)(Nc1ccc(NS(=O)(=O)c2ccccc2)cc1)c1ccccc1 [Compound 51, N-{4-[(phenylsulfonyl)amino]phenyl}benzene sulfonamide]	> 100					inhibition at 10 µM [1]: 5.5%; Ki [2]: 1.06 µM; Ki (hCE1)/Ki (hiCE) [2]: >90; Ki ([3]; Table 5, read-out: Ki hCE1): > 100 µM; Ki [5, 9]: > 100 µM; Ki ([6]; Table 5, read-out: Ki rCE): 1.55 µM; Ki [7]: 0.892 ± 0.067 µM
Cc1cc(C)c(S(=O)(=O)Nc2ccccc2)cc1S(=O)(=O)Nc1ccccc1 [Compound 48, 4,6-dimethyl-N,N′-diphenylbenzene-1,3-disulfonamide]	> 100					inhibition at 10 µM [1]: 8.9%; Ki [2]: 0.218 ± 0.045 µM; Ki (hCE1)/Ki (hiCE) [2]: >450; Ki ([3]; Table 5, read-out: Ki hCE1): > 100 µM; Ki [5, 9]: > 100 µM; Ki ([6]; Table 5, read-out: Ki rCE): > 100 µM; Ki [7]: > 100 µM
Cc1ccc(C(=O)C(=O)c2ccc(C)cc2)cc1 [Compound 17, 1,2-bis(4-methylphenyl)ethane-1,2-dione]		general carboxylesterase inhibitors	0.532 ± 0.035	0.0496 ± 0.0068	> 100	Ki [4, 12]: > 100 µM
COc1ccc(C(=O)C(=O)c2ccccc2)cc1 [Compound 6, 1-(4-methoxyphenyl)-2-2phenylethane-1,2-dione]	> 100	general carboxylesterase inhibitors	0.175 ± 0.0085	0.2 ± 0.06	> 100	
O=C(C(=O)c1ccc(CBr)cc1)c1ccccc1 [Compound 3]	> 100	general carboxylesterase inhibitors	0.0776 ± 0.0055	0.015 ± 0.0016		
O=C(C(=O)c1cc(F)c(F)c(F)c1)c1cc(F)c(F)c(F)c1 [Compound 20, 1,2-bis(3,4,5-trifluorophenyl)ethane-1,2-dione]		general carboxylesterase inhibitors				
O=C(C(=O)c1ccc(F)cc1)c1ccc(F)cc1 [Compound 16, 1,2-bis(4-fluorophenyl)ethane-1,2-dione]		general carboxylesterase inhibitors				
O=C(NC(Cc1ccccc1)C(=O)Oc1ccc2ccccc2c1)c1ccccc1 (stereo not shown) [Compound 57, 2-Benzoylamino-3-phenyl-propionic acid naphthalene-2-yl ester]						inhibition at 10 µM [1]: 24.2%; Ki [2]: 0.061 µM; Ki ([3]; Table 5, read-out: Ki hCE1): > 100 µM; Ki [5, 9]: > 100 µM
Cc1ccc(C(=O)C(=O)c2ccccc2)cc1C [Compound 5, 1-(3,4-dimethylphenyl)-2-phenylethane-1,2-dione]	> 100	general carboxylesterase inhibitors	0.0991 ± 0.01	0.108 ± 0.0088	> 100	
O=C(C(=O)c1cc(F)cc(F)c1)c1cc(F)cc(F)c1 [Compound 19, 1,2-bis(3,5-difluorophenyl)ethane-1,2-dione]		general carboxylesterase inhibitors				
O=C(C(=O)c1cccs1)c1cccs1 [Compound 23, 1,2-dithien-2-yl-ethane-1,2-dione]		general carboxylesterase inhibitors				
O=C(O)c1ccc(C(=O)C(=O)c2ccccc2)cc1 [Compound 1, 4-[oxo(phenyl)acetyl]benzoic acid]		general carboxylesterase inhibitors	0.524 ± 0.046	0.064 ± 0.0062	> 100	Ki [4, 12]: > 100 µM
Cc1ccc(C(=O)C(=O)c2ccccc2)cc1[N+](=O)[O-] [Compound 7, 1-(4-methyl-3-nitrophenyl)-2-phenylethane-1,2-dione]	> 100	general carboxylesterase inhibitors	0.295 ± 0.0096	0.0119 ± 0.0011	> 100	
